Entries after “also recorded” stand apart in the source; their conditions may differ.
Columns and labels:
[1] = system: unstimulated human lymphocytes; assay: [3H]LXA4 uptake into lymphocytes; assay type: cell-based; details: Medium, 5 nM, 1-30 min
Method: Lymphocvtes: The lymphocyte-rich interface layer was taken at the Ficoll-Hypaque gradient step of the neutrophil purification procedure. Platelets were removed by slow-speed centrifugation (see below) and contaminating monocytes and neutrophils by adherence to plastic Petri dishes for 1 hour at 37 ° C.
(§1) Human red cells, lymphocytes, and platelets were isolated from peripheral blood as described under Methods. Undifferentiated HL-60 cells were grown in culture according to standard protocols. Differentiated HL-60 cells were obtained by exposing cells to 1 μM retinoic acid for 5 days in culture. After harvesting and isolation, all cells were kept in the standard medium for 1 hour at 37° C. prior to assay. […] Results represent the means±SEM of three-four separate experiments for each cell type.

[2] = nM levels; cited from earlier work
[3] = RP-HPLC analysis of LXA4 integrity after exposure to inhibitors; assay type: physicochemical; details: 30 min of exposure
[4] = system: myeloid bone marrow colony formation; details: 10^-10 M range, with suboptimal GM-CSF; cited from earlier work
asthmatic patients = details: micromolar amounts via inhalation; cited from earlier work
[5] = cited from earlier work
[6] = system: LTD4- and LTB4-mediated inflammation; details: in vivo; cited from earlier work
[7] = system: unstimulated human platelets; assay: [3H]LXA4 uptake into platelets; assay type: cell-based; details: Medium, 5 nM, 1-30 min
Method: Platelets: Platelets were purified to homogeneity from acid citrate dextrose-treated blood according to established protocols (Romano, M. and Serhan, C. N. (1992) Biochemistry 31:8269-8277).
as §1

neutrophils [8] = details: 37° C.; cited from earlier work
[9] = molecular target: T1, specific lipoxin receptors (Homo sapiens, UniProt P25090); details: 4° C.; cited from earlier work
T1 sequence (P25090 1-351): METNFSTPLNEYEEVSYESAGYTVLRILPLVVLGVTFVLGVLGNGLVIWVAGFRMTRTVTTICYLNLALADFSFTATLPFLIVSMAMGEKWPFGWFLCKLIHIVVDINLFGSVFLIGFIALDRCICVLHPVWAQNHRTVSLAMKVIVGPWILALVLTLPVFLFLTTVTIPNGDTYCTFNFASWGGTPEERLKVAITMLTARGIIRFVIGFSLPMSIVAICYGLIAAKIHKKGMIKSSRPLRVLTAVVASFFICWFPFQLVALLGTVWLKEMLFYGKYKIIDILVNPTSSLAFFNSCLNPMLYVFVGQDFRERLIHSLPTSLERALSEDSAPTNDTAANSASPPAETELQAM

[10] = system: polymorphonuclear leukocytes; details: cited from earlier work
[11] = system: human mononuclear cell-colony formation; details: cited from earlier work
[12] = system: undifferentiated HL-60 cells; assay: [3H]LXA4 uptake into undifferentiated HL-60 cells; assay type: cell-based, human; details: Medium, 5 nM, 1-30 min
Method: (§2) HL-60 Cells: HL-60 cells were seeded into RPMI medium supplemented with 100 U/ml penicillin, 100 μg/ml streptomycin, and 10% fetal calf serum (Hyclone, Logan, Utah) and grown at 37° C. in 250 ml flasks in a 5% CO2 /95% air atmosphere. Cells were induced to differentiate toward a neutrophil-like phenotype by exposure to 1 μM retinoic acid for 5 days.
as §1

[13] = system: renal vasoconstrictor actions of LTD4; details: prior exposure, nM; cited from earlier work
[14] = system: unstimulated human erythrocytes; assay: [3H]LXA4 uptake into erythrocytes; assay type: cell-based; details: Medium, 5 nM, 1-30 min
Method: Red Blood Cells (RBC): RBC were obtained directly from the heparinized blood of normal human donors. During repeated (four) washing steps, the uppermost portion of the cell pellets was aspirated and discarded to remove residual minor contamination of buffy coat cells.
as §1

neutrophils [15] = assay: Phagocytosis of opsonized sheep red blood cells by neutrophils; assay type: cell-based, human
Method: Neutrophils were prepared as described in the general methodology and suspended at a concentration of 10×10^6 -15×10^6 cells/ml in Hepes Hanks buffer, pH 7.4, supplemented with 1 mg/ml BSA, 1 mg/ml glucose, 0.5 mM MgCl2 and 1.0 mM CaCl2 --2H2 O.
The sheep red blood cells (SRBCs) were prepared by washing the cells with 1× veronal-buffered saline (VBS), incubating the cells with a 1:500 dilution of rabbit anti-SRBC IgG antibody at 37° C. for 15 minutes, centrifuging the cells at 2000 rpm for 5 minutes at 4° C. and washing the cells twice with 1×VBS. SRBCs were resuspended at a final concentration of 10×10^8 cells/ml.
Each component was pipetted separately to the bottom of a 12×75 mm test tube to allow thorough mixing of the components.
To each 100 μl mixture was added 15 μl of opsonized SRBCs to start the phagocytosis reaction. The tubes were vortexed and placed in a 37° C. incubator for 30 minutes. After 30 minutes, the tubes were placed on ice to stop the reaction.
Non-phagocytosed SRBCs were lysed by adding 1.0 ml of 0.83% NH4 Cl to each tube, with shaking, and centrifuging the tubes quickly at 1500 rpm for 3 minutes. The supernatant was removed and the pellets were resuspended in 30 gl of PBS. The 30 μl solution was placed onto a polylysine-coated microscope slide and after 15 minutes the excess solution was removed from the slide. The cells on the slide were fixed with 1% glutaraldehyde for 5 minutes and then the excess glutaraldehyde was removed. The cells were stained with Giemsa Stain by immersing the slide in the stain for 25 minutes, rinsing the slide with water and allowing the slide to dry overnight.
The slides were examined with a light microscope at 100×power. SRBCs which were phagocytosed by neutrophils were visible as yellow cells within blue-stained neutrophils. The results for each reaction were expressed as a phagocytic index, representing the number of SRBCs phagocytosed per 100 neutrophils. […]

protein kinase C (PKC) = details: about 10 nM; cited from earlier work
[16] = molecular target: T1, specific lipoxin receptors; assay: [3H]LXA4 ligand binding to human neutrophils
Method: Influx rates were calculated by fitting the data points to a single exponential equation (Eq. 1). Results have been taken from three experiments based upon duplicate determinations. […] Specific binding was taken as the difference between total and non-specific binding. […] Results are from three separate experiments, each performed in triplicate.

human neutrophils = details: not told
[17] = system: retinoic acid-induced HL-60 cells; assay: [3H]LXA4 uptake into retinoic acid-induced HL-60 cells; assay type: cell-based, human; details: Medium, 5 nM, 1-30 min
Method: as §2, §1

lipoxin transport system = assay: [3H]LXA4 influx into human neutrophils (unidirectional tracer flux); details: combined data: Control, 0.4 mM SITS, 1 mM probenecid, Na+-free medium, high K+ medium; 5 nM LXA4

For `CCCCC[C@H](O)/C=C/C=C\C=C\C=C\[C@@H](O)[C@@H](O)CCCC(=O)O` [LXA4, (5S,6R,15S)-trihydroxy-7,9,13-trans-11-cis-eicosatetraenoic acid], the “[3H]LXA4 Uptake Rate” value [1] is given as 0.0019 ± 0.0048 fmol/10^6 cells/min, the “vasodilation” value [2] is given as “elicit prompt vasodilation” and the “integrity after exposure to DISA, PCP, UK-5099, and mersalyl” value [3] is given as “preservation of the integrity”. The “cell proliferation / colony formation” value [4] was “stimulates cell proliferation”, the “bronchoconstriction” value (asthmatic patients) was “blocks bronchoconstriction” and the “pK' of the carboxylic acid moiety” value [5] was ~ 3.8. For the same molecule, the “leukotriene-mediated inflammation” value [6] was “inhibits”, the “[3H]LXA4 Uptake Rate” value [7] was -0.0003 ± 0.0015 fmol/10^6 cells/min and the “metabolic transformation in neutrophils” value (neutrophils [8]) was “not subject to metabolic transformation”. The binding sites [9] was ~ 1830 sites/cell, the half-time for binding [9] was “.15 s” and the “chemotaxis” value [10] was “inhibits chemotaxis”. For the same molecule, the “mononuclear cell-colony formation” value [11] was “stimulates”, the “[3H]LXA4 Uptake Rate” value [12] was 0.11 ± 0.02 fmol/10^6 cells/min and the “renal vasoconstriction by LTD4” value [13] was “blocks renal vasoconstrictor actions”. The “[3H]LXA4 Uptake Rate” value [14] was 0.0014 ± 0.0006 fmol/10^6 cells/min, the “effect on neutrophil phagocytosis, phagocytic index” value (neutrophils [15]; 100 nM or 1000 nM, pH 7.4, 37° C., 30 minutes) was “more effective at inhibiting phagocytosis than LXB4; also recorded: inhibit phagocytosis” and the “pH-dependence of inhibition of neutrophil phagocytosis” value (neutrophils [15]; extracellular pH 6.4, 7.4, 8.4) was “increases as the extracellular pH is decreased”. For the same molecule, the “effect on PKC activity” value (protein kinase C (PKC)) was “enhance”, the “[3H]LXA4 Binding, total” value ([16]; Medium, 0.3 nM [3H]LXA4, 4° C., 5 min, no unlabeled LXA4) was 1.05 ± 0.03 fmol/10^6 cells and the “[3H]LXA4 Binding, non-specific” value ([16]; Medium, + unlabeled LXA4 0.3 μM) was 0.40 ± 0.08 fmol/10^6 cells. For the same molecule, the “specific binding as share of total binding” value ([16]; displaced by 1,000-fold excess unlabeled LXA4) was ~ 70%, the “[3H]LXA4 Binding, non-specific” value ([16]; pHo 6.40, + unlabeled LXA4 0.3 μM) was 0.39 ± 0.04 fmol/10^6 cells and the “[3H]LXA4 Binding, total” value ([16]; pHo 6.40, no unlabeled LXA4) was 1.02 ± 0.09 fmol/10^6 cells. The “[3H]LXA4 Binding, non-specific” value ([16]; pHo 8.40, + unlabeled LXA4 0.3 μM) was 0.42 ± 0.09 fmol/10^6 cells, the “[3H]LXA4 Binding, total” value ([16]; pHo 8.40, no unlabeled LXA4) was 1.19 ± 0.12 fmol/10^6 cells and the “efflux final value (relative cell content)” value (human neutrophils) was 0.54±0.03. The “[3H]LXA4 Uptake Rate” value [17] was 0.73 ± 0.15 fmol/10^6 cells/min, the “final [3H]LXA4 uptake (combined data)” value (lipoxin transport system) was 7.26±0.26 fmol/10^6 cells and the “initial [3H]LXA4 influx rate (combined data)” value (lipoxin transport system) was 0.57±0.09 fmol/10^6 cells/min.

From patent US5750354A, “Lipoxin transport system and uses therefor” (priority 1994, dated 1998)
